Where two headings read alike, the source gives them in different places.
Tests used:
Format in all cases: biochemical
[1] = target: T1, PI3K beta (Homo sapiens, UniProt P42338); assay: PI3 kinase assay (Kinase-Glo luminescence), PI3K beta; details: Enzymatic Data; read-out: PI3K beta IC50 [umol]
T1 construct: for the full-length p110-b subunit are generated and fused by overlapping PCR; His tag (C); made in house; host or cells: baculovirus; Tn5 (Trichoplusia ni) or TiniPro insect cells
Procedure: (§1) In a more preferred assay, the kinase reaction is performed in a final volume of 10 μL per well of a low volume non binding CORNING, 384 well black plate (Cat. No. #3676). The final concentrations of ATP and phosphatidyl inositol (PI) in the assay are 1 μM and 10 μg/mL respectively. The reaction is started by the addition of ATP.
(§2) The components of the assay are added per well as follows:
(§3) 50 nL test compounds in 90% DMSO per well, in columns 1-20, 8 concentrations (1/3 and 1/3.33 serial dilution step) in single. • Low control: 50 nL of 90% DMSO in half the wells of columns 23-24 (0.45% in final). • High control: 50 nL of reference compound (e.g. compound of Example 7 in WO 2006/122806, incorporated by reference hereinin that regard) in the other half of columns 23-24 (2.5 μM in final). • Standard: 50 nL of reference compound as just mentioned diluted as the test compounds in columns 21-22 • 20 mL ‘buffer’ are prepared per assay: • 200 μL of 1M TRIS HCl pH7.5 (10 mM in final) • 60 μL of 1M MgCl2 (3 mM in final) • 500 μL of 2M NaCl (50 mM in final) • 100 μL of 10% CHAPS (0.05% in final) • 200 μL of 100 mM DTT (1 mM in final) • 18.94 mL of nanopure water • 10 mL ‘PI’ are prepared per assay: • 200 μL of 1 mg/ml L-alpha-Phosphatidylinositol (Liver Bovine, Avanti Polar Lipids Cat. No. 840042C MW=909.12) prepared in 3% OctylGlucoside (10 μg/ml in final) • 9.8 mL of ‘buffer’ • 10 mL ‘ATP’ are prepared per assay: • 6.7 μL of 3 mM stock of ATP giving a final concentration of 1 μM per well • 10 mL of ‘buffer’ • 2.5 mL of each PI3K construct are prepared per assay in ‘PI’ with the following final concentration : • 10 nM PI3K alfa B-1075 • 25 nM beta BV-949 • 10 nM delta BV-1060 • 150 nM gamma BV-950 • 5 μL of ‘PI/PI3K’ are added per well. • 5 μl ‘ATP’ are added per well to start the reaction. • The plates are then incubated at room temperature for 60 minutes (alfa, beta, delta) or 120 minutes (gamma). • The reaction is terminated by the addition of 10 μL Kinase-Glo (Promega Cat. No. #6714). • The assay plates are read after 10 minutes in Synergy 2 reader (BioTek, Vermont USA) with an integration time of 100 milliseconds and sensitivity set to 191. • Output : The High control is around 60'000 counts and the Low control is 30'000 or lower • This luminescence assay gives a useful Z′ ratio between 0.4 and 0.7
(§4) […] is determined by a four parameter curve fitting routine that comes aloneg with “excel fit”. A 4 Parameter logistic equation is used to calculate IC50 values (IDBS XLfit) of the percentage inhibition of each compound at 8 concentrations (usually 10, 3.0, 1.0, 0.3, 0.1, 0.030, 0.010 and […]). Alternatively, IC50 values are calculated using idbsXLfit model 204, which is a 4 parameter logistic model.
(§5) Testing with the following kinases in the test system mentioned above, with the kinases given in the following tables, the following IC 50 data can be obtained: […]

[2] = target: T2, PI3K alfa (Homo sapiens, UniProt P42336); assay: PI3 kinase assay (Kinase-Glo luminescence), PI3K alfa
T2 construct: for the p110-a subunit (with a deletion of the first 20 amino acids); His tag (C); made in house; host or cells: baculovirus; Tn5 (Trichoplusia ni) or TiniPro insect cells
T2 sequence (P42336 with tags, fused parts or gaps limits assumed): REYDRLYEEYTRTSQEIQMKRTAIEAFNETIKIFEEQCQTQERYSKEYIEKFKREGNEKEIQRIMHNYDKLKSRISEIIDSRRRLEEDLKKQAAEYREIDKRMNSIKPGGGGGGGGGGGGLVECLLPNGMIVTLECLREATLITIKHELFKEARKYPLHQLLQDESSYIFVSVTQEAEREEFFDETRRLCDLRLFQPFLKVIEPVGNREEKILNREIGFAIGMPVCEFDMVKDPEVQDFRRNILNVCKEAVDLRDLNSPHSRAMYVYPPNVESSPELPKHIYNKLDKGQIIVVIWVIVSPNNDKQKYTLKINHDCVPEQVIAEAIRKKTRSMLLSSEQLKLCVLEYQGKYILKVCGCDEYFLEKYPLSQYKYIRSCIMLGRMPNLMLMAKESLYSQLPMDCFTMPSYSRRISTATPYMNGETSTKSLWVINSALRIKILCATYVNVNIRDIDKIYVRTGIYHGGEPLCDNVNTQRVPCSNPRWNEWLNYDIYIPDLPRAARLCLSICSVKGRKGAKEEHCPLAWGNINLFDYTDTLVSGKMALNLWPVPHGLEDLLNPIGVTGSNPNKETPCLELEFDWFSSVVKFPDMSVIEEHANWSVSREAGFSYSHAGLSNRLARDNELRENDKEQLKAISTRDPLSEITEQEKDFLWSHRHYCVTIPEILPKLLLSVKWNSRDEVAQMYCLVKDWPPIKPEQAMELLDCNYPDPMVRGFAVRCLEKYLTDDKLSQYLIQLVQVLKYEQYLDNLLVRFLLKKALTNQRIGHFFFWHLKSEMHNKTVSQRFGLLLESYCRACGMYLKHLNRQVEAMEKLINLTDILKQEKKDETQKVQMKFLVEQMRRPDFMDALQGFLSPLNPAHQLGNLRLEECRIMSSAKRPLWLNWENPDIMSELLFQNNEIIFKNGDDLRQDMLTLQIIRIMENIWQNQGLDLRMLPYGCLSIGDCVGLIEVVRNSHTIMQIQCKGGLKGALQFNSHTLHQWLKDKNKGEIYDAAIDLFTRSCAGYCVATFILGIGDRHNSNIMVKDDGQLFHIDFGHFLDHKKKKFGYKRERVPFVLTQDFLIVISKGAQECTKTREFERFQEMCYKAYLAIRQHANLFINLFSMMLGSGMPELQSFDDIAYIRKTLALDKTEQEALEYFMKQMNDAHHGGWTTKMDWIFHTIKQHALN
Procedure: as §1, §2, §3, §4, §5

[3] = target: T3, PI3K gamma (Homo sapiens, UniProt P48736); assay: PI3 kinase assay (Kinase-Glo luminescence), PI3K gamma; details: Enzymatic Data; read-out: PI3K gamma IC50 [umol]
T3 construct: PI3Kγ BV-950 p110g(D144aa)-C-Term His Tag; His tag (C); made in house; host or cells: construct from the Roger Williams lab (MRC LMB) in pVL1393; baculovirus; Tn5 (Trichoplusia ni) or TiniPro insect cells
T3 sequence (P48736 144-1102 limits assumed): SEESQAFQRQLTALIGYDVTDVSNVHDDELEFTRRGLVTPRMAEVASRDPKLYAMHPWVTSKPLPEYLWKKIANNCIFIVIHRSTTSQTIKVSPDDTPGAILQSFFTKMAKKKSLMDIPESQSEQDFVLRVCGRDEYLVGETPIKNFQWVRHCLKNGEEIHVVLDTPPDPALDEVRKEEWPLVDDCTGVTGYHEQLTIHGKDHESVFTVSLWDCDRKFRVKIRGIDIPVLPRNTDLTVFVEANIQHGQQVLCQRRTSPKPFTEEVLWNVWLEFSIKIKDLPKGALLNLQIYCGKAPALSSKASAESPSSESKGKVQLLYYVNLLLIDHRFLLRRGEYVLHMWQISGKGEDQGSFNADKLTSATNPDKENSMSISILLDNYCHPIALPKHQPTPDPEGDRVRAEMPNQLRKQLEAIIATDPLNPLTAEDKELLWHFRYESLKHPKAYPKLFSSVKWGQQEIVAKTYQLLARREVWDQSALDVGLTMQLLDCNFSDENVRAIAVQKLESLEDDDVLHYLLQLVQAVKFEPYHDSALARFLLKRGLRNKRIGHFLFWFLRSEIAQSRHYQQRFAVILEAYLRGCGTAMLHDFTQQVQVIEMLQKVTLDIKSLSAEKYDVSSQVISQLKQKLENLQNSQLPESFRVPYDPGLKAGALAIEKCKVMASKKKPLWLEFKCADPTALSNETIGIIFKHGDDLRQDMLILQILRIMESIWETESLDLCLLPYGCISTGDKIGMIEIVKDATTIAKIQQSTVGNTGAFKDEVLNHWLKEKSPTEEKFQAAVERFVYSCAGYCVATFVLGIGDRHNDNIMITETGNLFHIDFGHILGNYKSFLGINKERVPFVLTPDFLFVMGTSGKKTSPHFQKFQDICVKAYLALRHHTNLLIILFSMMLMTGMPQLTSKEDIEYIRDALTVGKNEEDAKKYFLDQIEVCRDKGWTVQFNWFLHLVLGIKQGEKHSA
Procedure: as §1, §2, §4

[4] = target: T4, PI3K delta (Homo sapiens, UniProt O00329); assay: PI3 kinase assay (Kinase-Glo luminescence), PI3K delta; details: Enzymatic Data; read-out: PI3K delta IC50 [umol]
T4 construct: for the full-length p110-d subunit are generated and fused by overlapping PCR; His tag (C); made in house; host or cells: baculovirus; Tn5 (Trichoplusia ni) or TiniPro insect cells
T4 sequence (O00329 with tags, fused parts or gaps limits assumed): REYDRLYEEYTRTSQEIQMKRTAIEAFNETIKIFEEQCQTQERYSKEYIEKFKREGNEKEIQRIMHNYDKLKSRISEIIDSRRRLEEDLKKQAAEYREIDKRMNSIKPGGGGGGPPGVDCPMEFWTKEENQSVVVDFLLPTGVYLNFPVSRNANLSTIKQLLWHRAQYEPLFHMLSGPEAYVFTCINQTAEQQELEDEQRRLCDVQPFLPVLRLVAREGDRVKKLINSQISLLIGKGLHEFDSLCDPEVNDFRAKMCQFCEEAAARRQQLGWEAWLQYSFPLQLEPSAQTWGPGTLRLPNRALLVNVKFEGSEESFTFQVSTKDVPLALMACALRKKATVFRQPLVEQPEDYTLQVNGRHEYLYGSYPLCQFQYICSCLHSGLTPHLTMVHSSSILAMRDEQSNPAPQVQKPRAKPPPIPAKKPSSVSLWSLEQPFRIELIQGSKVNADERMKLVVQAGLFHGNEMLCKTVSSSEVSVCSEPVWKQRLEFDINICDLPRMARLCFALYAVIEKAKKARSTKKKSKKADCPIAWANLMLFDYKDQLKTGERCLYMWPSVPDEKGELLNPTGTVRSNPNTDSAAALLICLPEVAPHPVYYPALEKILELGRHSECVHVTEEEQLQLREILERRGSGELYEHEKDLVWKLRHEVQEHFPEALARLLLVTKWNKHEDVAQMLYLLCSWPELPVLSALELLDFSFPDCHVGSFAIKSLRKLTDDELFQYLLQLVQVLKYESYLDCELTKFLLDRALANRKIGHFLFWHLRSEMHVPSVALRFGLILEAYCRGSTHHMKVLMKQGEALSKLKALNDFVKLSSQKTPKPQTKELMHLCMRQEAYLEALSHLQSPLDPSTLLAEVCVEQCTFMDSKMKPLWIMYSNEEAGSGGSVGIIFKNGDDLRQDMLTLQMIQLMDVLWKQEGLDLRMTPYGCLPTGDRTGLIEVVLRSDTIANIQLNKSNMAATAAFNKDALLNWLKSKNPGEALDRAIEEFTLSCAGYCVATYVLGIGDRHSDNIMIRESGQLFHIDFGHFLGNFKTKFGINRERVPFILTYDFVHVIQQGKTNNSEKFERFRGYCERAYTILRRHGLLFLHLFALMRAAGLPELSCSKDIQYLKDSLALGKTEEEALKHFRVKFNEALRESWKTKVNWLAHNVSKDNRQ
Procedure: as §1, §2, §3, §4, §5

[5] = Enzymatic Data, read-out: PI3K alfa IC50 [umol]

T1 sequence (P42338 with tags, fused parts or gaps limits assumed): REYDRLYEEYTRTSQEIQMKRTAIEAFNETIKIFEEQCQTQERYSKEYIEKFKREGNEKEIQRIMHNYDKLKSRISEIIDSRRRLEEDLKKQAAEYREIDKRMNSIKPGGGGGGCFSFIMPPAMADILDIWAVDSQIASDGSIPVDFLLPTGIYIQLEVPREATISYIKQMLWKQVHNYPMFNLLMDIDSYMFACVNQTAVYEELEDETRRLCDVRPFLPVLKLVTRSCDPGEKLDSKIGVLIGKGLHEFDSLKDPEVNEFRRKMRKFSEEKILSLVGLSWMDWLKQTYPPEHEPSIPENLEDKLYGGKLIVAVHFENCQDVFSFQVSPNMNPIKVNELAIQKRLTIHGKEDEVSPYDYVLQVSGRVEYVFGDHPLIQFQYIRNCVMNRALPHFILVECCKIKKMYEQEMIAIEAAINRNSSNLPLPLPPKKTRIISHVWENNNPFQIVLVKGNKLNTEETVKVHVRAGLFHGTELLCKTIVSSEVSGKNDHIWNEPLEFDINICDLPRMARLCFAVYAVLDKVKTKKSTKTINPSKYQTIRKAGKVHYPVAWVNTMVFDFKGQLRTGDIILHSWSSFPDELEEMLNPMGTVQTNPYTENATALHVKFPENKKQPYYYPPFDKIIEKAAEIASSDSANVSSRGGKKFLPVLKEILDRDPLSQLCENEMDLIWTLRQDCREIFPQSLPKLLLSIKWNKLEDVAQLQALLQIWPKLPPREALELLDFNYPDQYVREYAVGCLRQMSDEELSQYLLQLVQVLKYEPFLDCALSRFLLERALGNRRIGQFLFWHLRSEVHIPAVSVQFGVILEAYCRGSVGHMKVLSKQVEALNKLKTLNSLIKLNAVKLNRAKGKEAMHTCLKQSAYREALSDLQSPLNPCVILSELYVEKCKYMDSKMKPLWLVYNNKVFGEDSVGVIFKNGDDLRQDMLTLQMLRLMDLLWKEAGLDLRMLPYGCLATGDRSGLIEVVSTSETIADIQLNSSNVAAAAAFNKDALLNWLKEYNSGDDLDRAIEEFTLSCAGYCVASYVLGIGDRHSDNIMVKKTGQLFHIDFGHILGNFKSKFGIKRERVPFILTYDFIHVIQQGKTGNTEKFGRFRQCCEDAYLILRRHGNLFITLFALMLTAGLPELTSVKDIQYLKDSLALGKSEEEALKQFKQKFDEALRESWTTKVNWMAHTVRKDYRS

IC50 ([2]; read-out: IC50 (μm) PI3K-alfa) [µM]	SMILES	also measured
	NCC1(COc2ccc(-c3ccc4ncc(-c5cnc(N)c(C(F)(F)F)c5)n4n3)cc2)COC1 [Example 169, 5-{6-[4-(3-Aminomethyl-oxetan-3-ylmethoxy)-phenyl]-imidazo[1,2-b]pyridazin-3-yl}-3-trifluoromethyl-pyridin-2-ylamine]	IC50 [1]: 0.082 µM; IC50 [2, 5]: 0.045 µM; IC50 [3]: 0.324 µM; IC50 [4]: 0.053 µM
	Nc1ncc(-c2ccc3ncc(-c4ccc(C(=O)N5CCN(CCc6ccccn6)CC5)cc4)n3n2)cc1C(F)(F)F [Example 135]	IC50 [1]: 0.587 µM; IC50 [2, 5]: 0.046 µM; IC50 [3]: 2.01 µM; IC50 [4]: 0.059 µM
0.0049	Nc1ncc(-c2ccc3ncc(-c4ccc(O)nc4)n3n2)cc1C(F)(F)F [Example 32, 5-[6-(6-Amino-5-trifluoromethyl-pyridin-3-yl)-imidazo[1,2-b]pyridazin-3-yl]-pyridin-2-ol]	
0.135	COc1ccc(-c2cnc3ccc(-c4ccc(OCCO)c(C(C)=O)c4)nn23)cc1OC [Example 16, 1-[5-[3-(3,4-Dimethoxy-phenyl)-imidazo[1,2-b]pyridazin-6-yl]-2-(2-hydroxy-ethoxy)-phenyl]-ethanone]	
0.0023	Nc1ncc(-c2ccc3ncc(-c4ccc(NCc5ccccc5)nc4)n3n2)cc1C(F)(F)F [Example 30, 5-[3-(6-Benzylamino-pyridin-3-yl)-imidazo[1,2-b]pyridazin-6-yl]-3-trifluoro-methyl-pyridin-2-ylamine]	
0.014	NC(=O)c1ccc(-c2ccc3ncc(-c4ccc(C(N)=O)cc4)n3n2)cc1 [Example 7, 4-[3-(4-Carbamoylphenyl)-imidazo[1,2-b]pyridazin-6-yl]-benzamide]	
0.003	Nc1ncc(-c2ccc3ncc(-c4cnc(N)c(C(F)(F)F)c4)n3n2)cc1C(F)(F)F [Example 6]	
0.003	COc1ccc(-c2ccc3ncc(-c4ccc(OC)c(OC)c4)n3n2)cc1OC [Example 1, 3,6-Bis-(3,4-dimethoxy-phenyl)-imidazo[1,2-b]pyridazine]	
0.0045	Nc1ncc(-c2ccc3ncc(-c4ccc(N5CCOCC5)nc4)n3n2)cc1C(F)(F)F [Example 31, 5-[3-(6-Morpholin-4-yl-pyridin-3-yl)-imidazo[1,2-b]pyridazin-6-yl]-3-trifluoromethyl-pyridin-2-ylamine]	
0.372	NC(=O)c1ccc(-c2ccc3ncc(-c4cnc(N)c(C(F)(F)F)c4)n3n2)cc1 [Example 11, 4-[3-(6-Amino-5-trifluoromethyl-pyridin-3-yl)-imidazo[1,2-b]pyridazin-6-yl]-benzamide]	
0.0095	CS(=O)(=O)c1ccc(-c2cnc3ccc(-c4cnc(N)c(C(F)(F)F)c4)nn23)cc1 [Example 18, 5-[3-(4-Methanesulfonyl-phenyl)-imidazo[1,2-b]pyridazin-6-yl]-3-trifluoro-methyl-pyridin-2-ylamine]	
0.006	CCOC(=O)c1cc(-c2ccc3ncc(-c4ccc(OC)c(OC)c4)n3n2)ccc1OC [Example 8, 5-[3-(3,4-Dimethoxy-phenyl)-imidazo[1,2-b]pyridazin-6-yl]-2-methoxy-benzoic acid ethyl ester]	
0.053	COc1cc(-c2ccc3ncc(-c4ccc(C(N)=O)cc4)n3n2)ccc1OCCCN [Example 17, 4-{6-[4-(3-Amino-propoxy)-3-methoxy-phenyl]-imidazo[1,2-b]pyridazin-3-yl}-benzamide]	
0.118	COc1cc(-c2ccc3ncc(-c4cnc(N)c(C(F)(F)F)c4)n3n2)ccc1OCCCNC(=O)OC(C)(C)C [Example 10, (3-{4-[3-(6-Amino-5-trifluoromethyl-pyridin-3-yl)-imidazo[1,2-b]pyridazin-6-yl]-2-methoxy-phenoxy}-propyl)-carbamic acid tert-butyl ester]	
0.00164	COc1ccc(-c2ccc3ncc(-c4ccc(S(C)(=O)=O)cc4)n3n2)cc1OC [Example 5, 6-(3,4-Dimethoxy-phenyl)-3-(4-methanesulfonyl-phenyl)-imidazo[1,2-b]pyridazine]	
0.0014	Nc1ncc(-c2ccc3ncc(-c4ccc(F)nc4)n3n2)cc1C(F)(F)F [Example 27, 5-[3-(6-Fluoro-pyridin-3-yl)-imidazo[1,2-b]pyridazin-6-yl]-3-trifluoromethyl-pyridin-2-ylamine]	
0.122	COc1ccc(-c2ccc3ncc(-c4ccc(-c5ccc[nH]5)cc4)n3n2)cc1OC [Example 20, 6-(3,4-Dimethoxy-phenyl)-3-[4-(1H-pyrrol-2-yl)-phenyl]-imidazo[1,2-b]pyridazine]	
	CC(C)(C)OC(=O)NCCCOc1ccc(-c2ccc3ncc(-c4cnc(N)c(C(F)(F)F)c4)n3n2)cc1OC(F)(F)F [Example 55]	IC50 [1]: > 9.1 µM; IC50 [2, 5]: 6.12 µM; IC50 [4]: > 9.1 µM
0.854	COc1ccccc1-c1ccc2ncc(-c3ccc(C(N)=O)cc3)n2n1 [Example 9, 4-[6-(2-Methoxy-phenyl)-imidazo[1,2-b]pyridazin-3-yl]-benzamide]	
0.292	COc1cc(-c2cnc3ccc(-c4ccc(C(N)=O)cc4)nn23)ccc1OCCCNC(=O)OC(C)(C)C [Example 21, (3-{4-[6-(4-Carbamoyl-phenyl)-imidazo[1,2-b]pyridazin-3-yl]-2-methoxy-phenoxy}-propyl)-carbamic acid tert-butyl ester]	
0.007	CC(C)N1CCC(Oc2ccc(-c3cnc4ccc(-c5cnc(N)c(C(F)(F)F)c5)nn34)cn2)CC1 [Example 29, 5-{3-[6-(1-Isopropyl-piperidin-4-yloxy)-pyridin-3-yl]-imidazo[1,2-b]pyridazin-6-yl}-3-trifluoromethyl-pyridin-2-ylamine]	
0.12	COc1ccc(-c2ccc3ncc(-c4ccc(-c5ccoc5)cc4)n3n2)cc1OC [Example 19, 6-(3,4-Dimethoxy-phenyl)-3-(4-furan-3-yl-phenyl)-imidazo[1,2-b]pyridazine]	
0.012	Nc1ncc(-c2ccc3ncc(-c4ccc(Nc5nc(-c6ccccc6)cs5)nc4)n3n2)cc1C(F)(F)F [Example 28, 5-{3-[6-(4-Phenyl-thiazol-2-ylamino)-pyridin-3-yl]-imidazo[1,2-b]pyridazin-6-yl}-3-trifluoromethyl-pyridin-2-ylamine]	
	Nc1ncc(-c2cnc3ccc(-c4cnc(N)c(C(F)(F)F)c4)nn23)cn1 [Example 79, 5-[6-(6-Amino-5-trifluoro-methyl-pyridin-3-yl)-imidazo [1,2-b]pyridazin-3-yl]-pyrimidin-2-ylamine]	IC50 [1]: 0.004 µM; IC50 [2, 5]: 0.015 µM; IC50 [4]: 0.009 µM
0.039	COc1cc(-c2ccc3ncc(-c4cnc(N)c(C(F)(F)F)c4)n3n2)ccc1OCCCN [Example 14, 5-{6-[4-(3-Amino-propoxy)-3-methoxy-phenyl]-imidazo[1,2-b]pyridazin-3-yl}-3-trifluoromethyl-pyridin-2-ylamine]	

From patent publication US20100311729A1, “Substituted imidazopyridazines and pyrrolopyrimidines as lipid kinase inhibitors” (priority 2007, published 2010)
